Each block holds one molecule with its values, some of them ahead of it.
Test: Stability of Budesonide on storage, 21-aldehyde and Budesonide content by HPLC
Format: physicochemical
Details: for Budenoside HPLC Area % / 21 Aldehyde HPLC Area %: double plastic containers
Experimental: The amount of air-sensitive steroid and/or its 21 aldehyde impurity were determined using HPLC. Common HPLC methods for these steroids and their 21-aldehyde impurities may be found in various monographs see for example for Budesonide and its 21-aldehyde impurity a HPLC method is reported in USP31-NF26, page 1565 (detection limit 0.02%), for Fluocinolone acetonide a HPLC method in European Pharmacopoeia (EP) 6.0, page 1915, and for Methylprednisolone a HPLC method in European Pharmacopoeia (EP) 6.0, page 2393.
Budenoside from three production lots prepared in stainless steel reactors was compared to a lot of Budenoside produced in such a reactor and purified with cysteine according to example 5. All samples were stored in double plastic containers. The samples that were not treated with cysteine were kept at a temperature of 25±2° C. and relative humidity of 60%. The sample treated with cysteine was stored at a temperature that varied from about 0° C. to about 40° C. with no humidity control. As is shown in the table below the amount of the 21-aldehyde impurity in the Budenoside purified according to example 5 is less than 0.07% even after 6 years of storage. The aldehyde content of all samples was measured by HPLC.

[1] = lot purified with cysteine, stored at about 0° C. to about 40° C., no humidity control, 6 years
[2] = production lot 1 of 3 (c1-c2), not treated with cysteine, 25±2° C., 60% relative humidity, 2 years
[3] = production lot 1 of 3 (c1-c2), not treated with cysteine, 25±2° C., 60% relative humidity, 5 years
[4] = production lot 2 of 3 (c3-c4), not treated with cysteine, 25±2° C., 60% relative humidity, 2 years
[5] = production lot 2 of 3 (c3-c4), not treated with cysteine, 25±2° C., 60% relative humidity, 5 years
[6] = production lot 3 of 3 (c5-c6), not treated with cysteine, 25±2° C., 60% relative humidity, 2 years
[7] = production lot 3 of 3 (c5-c6), not treated with cysteine, 25±2° C., 60% relative humidity, 5 years

amount of the 21-aldehyde impurity (after 6 years of storage at about 0° C. to about 40° C., no humidity control): less than 0.07%
Budenoside HPLC Area % (lot purified with cysteine, stored at about 0° C. to about 40° C., no humidity control, 0 years): 99.76 HPLC Area %
21 Aldehyde HPLC Area % [1]: 0.02 HPLC Area %
Budenoside HPLC Area % [1]: 99.61 HPLC Area %
SMILES: CCCC1O[C@@H]2C[C@H]3[C@@H]4CCC5=CC(=O)C=C[C@]5(C)[C@H]4[C@@H](O)C[C@]3(C)[C@]2(C(=O)CO)O1 (stereo partly shown) [Budesonide]

Budenoside HPLC Area % (production lot 1 of 3 (c1-c2), not treated with cysteine, 25±2° C., 60% relative humidity, 0 years): 99.0 HPLC Area %
Budenoside HPLC Area % (production lot 1 of 3 (c1-c2), not treated with cysteine, 25±2° C., 60% relative humidity, 1 year): 98.8 HPLC Area %
21 Aldehyde HPLC Area % [2]: 0.1 HPLC Area %
Budenoside HPLC Area % [2]: 98.7 HPLC Area %
21 Aldehyde HPLC Area % [3]: 0.2 HPLC Area %
Budenoside HPLC Area % [3]: 98.4 HPLC Area %
Budenoside HPLC Area % (production lot 2 of 3 (c3-c4), not treated with cysteine, 25±2° C., 60% relative humidity, 0 years): 99.4 HPLC Area %
Budenoside HPLC Area % (production lot 2 of 3 (c3-c4), not treated with cysteine, 25±2° C., 60% relative humidity, 1 year): 98.9 HPLC Area %
21 Aldehyde HPLC Area % [4]: 0.6 HPLC Area %
Budenoside HPLC Area % [4]: 98.5 HPLC Area %
21 Aldehyde HPLC Area % [5]: 0.9 HPLC Area %
Budenoside HPLC Area % [5]: 97.8 HPLC Area %
Budenoside HPLC Area % (production lot 3 of 3 (c5-c6), not treated with cysteine, 25±2° C., 60% relative humidity, 0 years): 99.2 HPLC Area %
Budenoside HPLC Area % (production lot 3 of 3 (c5-c6), not treated with cysteine, 25±2° C., 60% relative humidity, 1 year): 99.0 HPLC Area %
21 Aldehyde HPLC Area % [6]: <0.1 HPLC Area %
Budenoside HPLC Area % [6]: 99.1 HPLC Area %
21 Aldehyde HPLC Area % [7]: <0.2 HPLC Area %
Budenoside HPLC Area % [7]: 98.2 HPLC Area %
SMILES: CCCC1O[C@@H]2C[C@H]3[C@@H]4CCC5=CC(=O)C=C[C@]5(C)[C@H]4[C@@H](O)C[C@]3(C)[C@]2(C(=O)CO)O1 (stereo partly shown) [Budenoside, Budesonide]

Reference: patent US20090240049A1, “Purification of air sensitive steroids” (priority 2008, published 2009)
